ChEMBL document CHEMBL1128163, “Synthesis and biological evaluation of 4-heterotribactams” (Bioorg Med Chem Lett, 1995)
Active and inactive are the calls of the source. No cut-off for these calls is given here.

What was measured:
Assay type in all cases: functional, organism-based
[1] = system: Pseudomonas aeruginosa; assay: Tested for broad spectrum antibacterial activity against Pseudomonas aeruginosa; A - active compound
[2] = system: Streptococcus pneumoniae; assay: Antibacterial activity against Streptococcus pneumoniae at a concentration of 2 ug/mL; A - weak activity was observed
[3] = system: Staphylococcus aureus; assay: Antibacterial activity against sensitive strains of Staphylococcus aureus at 2-32 ug/mL concentration; A - weak activity was observed
[4] = system: Staphylococcus aureus; assay: Antibacterial activity against resistant strains of Staphylococcus aureus at 2-32 ug/mL concentration; A - weak activity was observed
[5] = system: Escherichia coli; assay: Antibacterial activity against Escherichia coli 1850-WT strain at 16 ug/mL concentration; A - low activity was observed
[6] = system: Escherichia coli; assay: Antibacterial activity against Escherichia coli 851 at 16 ug/mL concentration; A - low activity was observed
[7] = system: Escherichia coli; assay: Antibacterial activity against Escherichia coli 1919-PM/TEM-1 strains at a concentration of at 16 ug/mL concentration; A - low activity was observed
[8] = system: Staphylococcus epidermidis; assay: Antibacterial activity against Staphylococcus epidermidis at 2 ug/mL concentration; A - weak activity was observed
[9] = system: Pseudomonas aeruginosa; assay: Antibacterial activity against Pseudomonas aeruginosa at concentrations >32 ug/mL; inactive
[10] = system: Escherichia coli; assay: Antibacterial activity against Escherichia coli 1852-PM strain at 16 ug/mL concentration; A - low activity was observed

SMILES: C[C@@H](O)[C@H]1C(=O)N2C(C(=O)O)=C(SCCN)C[C@H]12
- Activity [1]: Low activity

SMILES: C[C@@H](O)[C@H]1C(=O)N2C(C(=O)O)=C(S[C@@H]3CN[C@H](C(=O)N(C)C)C3)[C@H](C)[C@H]12
- Activity [1]: Low activity

SMILES: C[C@@H](O)[C@H]1C(=O)N2C(C(=O)O)=C3SCC[C@H]3[C@H]12
- Activity [2]: Low activity
- Activity [3]: Low activity
- Activity [4]: Low activity
- Activity [5]: Low activity
- Activity [6]: Low activity
- Activity [7]: Low activity
- Activity [8]: Low activity
- Activity [9]: inactive
- Activity [10]: Low activity
